Experimental data: patent US12600725B2 (Memorial Sloan-Kettering Cancer Center, priority 2013, dated 2026)
Where two headings read alike, the source gives them in different places.

Key:
Hsp90α [1] = target: T1, Hsp90α (Homo sapiens, UniProt P07900)
Trap-1 [2] = target: T2, Trap-1 (Homo sapiens, UniProt Q12931); details: read-out: Trap-1 IC50; 43a as FP probe
T2 sequence (Q12931 60-704): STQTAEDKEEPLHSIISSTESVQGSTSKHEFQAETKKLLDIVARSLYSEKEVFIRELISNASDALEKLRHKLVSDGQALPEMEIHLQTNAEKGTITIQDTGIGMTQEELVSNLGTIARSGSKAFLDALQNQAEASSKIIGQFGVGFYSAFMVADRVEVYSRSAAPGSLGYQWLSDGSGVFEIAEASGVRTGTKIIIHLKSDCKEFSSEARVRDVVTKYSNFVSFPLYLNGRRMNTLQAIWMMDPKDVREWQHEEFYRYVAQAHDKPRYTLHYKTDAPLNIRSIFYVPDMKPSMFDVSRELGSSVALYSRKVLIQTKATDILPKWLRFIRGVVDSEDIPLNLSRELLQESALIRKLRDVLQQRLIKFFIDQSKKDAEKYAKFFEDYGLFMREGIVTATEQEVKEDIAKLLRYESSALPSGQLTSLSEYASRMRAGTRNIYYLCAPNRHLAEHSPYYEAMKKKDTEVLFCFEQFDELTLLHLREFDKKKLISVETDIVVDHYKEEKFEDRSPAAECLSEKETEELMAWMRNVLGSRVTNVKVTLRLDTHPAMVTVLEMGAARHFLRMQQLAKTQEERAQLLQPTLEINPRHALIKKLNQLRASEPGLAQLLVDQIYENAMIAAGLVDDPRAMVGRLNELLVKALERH

Hsp90α [3] = target: T1, Hsp90α; details: Richter et al. 2008; read-out: reported binding to Hsp90α; cited from earlier work
Hsp90 = Hsp90 (Homo sapiens, UniProt P08238); details: McLaughlin et al. 2004; read-out: reported interaction with Hsp90; cited from earlier work
Hsp90β [4] = target: T3, Hsp90β (Homo sapiens, UniProt P08238)
Grp94 [5] = target: T4, Grp94 (Canis lupus familiaris, UniProt P41148)
Hsp90β [6] = target: T3, Hsp90β; details: Richter et al. 2008; read-out: reported binding to Hsp90β; cited from earlier work
Trap-1 [7] = target: T2, Trap-1; design: purchased Enzo Life Sciences ADI-SPP-848; details: cited from earlier work
Trap-1 [8] = target: T2, Trap-1; experiment: Hsp90 FP saturation binding assay of FP probes; design: purchased Enzo Life Sciences ADI-SPP-848; details: saturation binding of FP probe; read-out: apparent Kd
Method: (§1) We next determined, in a standard saturation binding experiment that measures ligand binding in the presence of varying concentration of protein, the ability of these ligands as probes for the Hsp90 paralogs (FIGS. 22b-c).
(§2) Hsp90 saturation binding assay. […] The assay window was calculated as the difference between the FP value recorded for the bound fluorescent tracer and the FP value recorded for the free fluorescent tracer (defined as mP-mPf).

Hsp90α [9] = target: T1, Hsp90α; experiment: Hsp90 FP saturation binding assay of FP probes; details: saturation binding of FP probe; read-out: apparent Kd
Method: as §1, §2

Hsp90β [10] = target: T3, Hsp90β; experiment: Hsp90 FP saturation binding assay of FP probes; details: saturation binding of FP probe; read-out: apparent Kd
Method: as §1, §2

Grp94 [11] = target: T4, Grp94; experiment: Hsp90 FP saturation binding assay of FP probes; design: other: 43a as FP probe; Grp94; apparent Kd; assay window; other: probe 115a; details: saturation binding of FP probe
Method: as §1, §2

[12] = read-out: Hsp90α IC50, 43a as FP probe
[13] = read-out: binding affinity (FP competition), probe 115a
[14] = read-out: Hsp90β IC50, 43a as FP probe
[15] = read-out: Grp94 IC50, 43a as FP probe

T4 sequence (P41148 with tags, fused parts or gaps DELINS287-327GGGG): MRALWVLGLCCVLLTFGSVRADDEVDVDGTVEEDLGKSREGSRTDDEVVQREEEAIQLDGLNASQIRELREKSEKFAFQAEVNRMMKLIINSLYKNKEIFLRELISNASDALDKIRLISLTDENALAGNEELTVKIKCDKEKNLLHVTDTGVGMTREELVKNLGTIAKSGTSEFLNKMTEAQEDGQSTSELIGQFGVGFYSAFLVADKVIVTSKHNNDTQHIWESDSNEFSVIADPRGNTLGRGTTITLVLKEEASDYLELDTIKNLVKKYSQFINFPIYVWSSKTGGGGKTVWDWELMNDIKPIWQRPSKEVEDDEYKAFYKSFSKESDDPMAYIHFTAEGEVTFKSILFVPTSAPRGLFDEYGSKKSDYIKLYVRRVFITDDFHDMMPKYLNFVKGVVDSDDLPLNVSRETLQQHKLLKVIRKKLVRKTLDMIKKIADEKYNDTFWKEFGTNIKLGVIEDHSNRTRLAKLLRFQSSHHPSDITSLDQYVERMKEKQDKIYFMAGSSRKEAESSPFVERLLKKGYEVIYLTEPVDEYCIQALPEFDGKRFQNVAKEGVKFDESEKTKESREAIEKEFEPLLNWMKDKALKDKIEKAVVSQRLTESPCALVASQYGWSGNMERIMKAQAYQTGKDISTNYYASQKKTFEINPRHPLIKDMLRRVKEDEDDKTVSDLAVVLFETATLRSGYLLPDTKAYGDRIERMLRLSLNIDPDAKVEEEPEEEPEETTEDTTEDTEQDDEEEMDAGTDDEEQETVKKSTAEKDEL
T3 sequence (P08238 whole entry): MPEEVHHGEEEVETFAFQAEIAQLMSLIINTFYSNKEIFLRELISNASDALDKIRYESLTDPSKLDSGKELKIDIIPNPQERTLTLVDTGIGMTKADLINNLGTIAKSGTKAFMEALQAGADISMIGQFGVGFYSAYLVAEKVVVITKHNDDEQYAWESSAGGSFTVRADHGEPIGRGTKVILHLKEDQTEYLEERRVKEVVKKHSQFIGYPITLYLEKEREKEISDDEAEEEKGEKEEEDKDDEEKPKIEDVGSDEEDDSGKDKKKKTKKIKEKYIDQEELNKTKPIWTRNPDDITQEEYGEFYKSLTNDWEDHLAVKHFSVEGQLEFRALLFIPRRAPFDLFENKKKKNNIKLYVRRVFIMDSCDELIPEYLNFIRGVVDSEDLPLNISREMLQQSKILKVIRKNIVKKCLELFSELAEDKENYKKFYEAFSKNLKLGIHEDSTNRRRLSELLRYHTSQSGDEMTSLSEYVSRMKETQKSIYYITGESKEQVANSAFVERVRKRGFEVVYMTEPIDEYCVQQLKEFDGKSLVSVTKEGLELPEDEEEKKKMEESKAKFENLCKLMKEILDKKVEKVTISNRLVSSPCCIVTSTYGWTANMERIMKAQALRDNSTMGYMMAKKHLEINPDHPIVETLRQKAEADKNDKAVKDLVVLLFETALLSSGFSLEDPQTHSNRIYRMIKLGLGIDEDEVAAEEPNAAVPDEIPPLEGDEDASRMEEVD
Chain of Hsp90 (P08238 whole entry): as above

Row | IC50 (Hsp90α [1]; [12]) | IC50 (Hsp90α [1]; [13]) | IC50 (Trap-1 [2]) | IC50 (Hsp90β [4]; [14]) | IC50 (Hsp90β [4]; [13]) | IC50 (Grp94 [5]; [15]) | IC50 (Grp94 [5]; [13]) | Kd (Trap-1 [8]) | Kd (Hsp90α [9]) | Kd (Hsp90β [10]) | assay window (Grp94 [11]) | Kd (Grp94 [11]; read-out: apparent Kd) | SMILES | Kd (Hsp90α [3]) | Kd (Hsp90) | Kd (Hsp90β [6]) | reported greater affinity of Trap-1 than Hsp90 (Trap-1 [7])
1 | 59.3 µM | 59 µM | 55.6 µM | 42.2 µM | 42 µM | 11.4 µM | 11.4 µM | – | – | – | – | – | Nc1ncnc2c1ncn2[C@@H]1O[C@H](COP(=O)(O)OP(=O)(O)O)[C@@H](O)[C@H]1O [ADP] | 51 µM | 41 µM | 34 µM | –
2 | 861 µM | – | 31.3 µM | 894 µM | – | 3.24 µM | 3.2 µM | – | – | – | – | – | Nc1ncnc2c1ncn2[C@@H]1O[C@H](COP(=O)(O)OP(=O)(O)OP(=O)(O)O)[C@@H](O)[C@H]1O [ATP] | – | 840 µM | – | approximately 10 fold
3 | – | – | – | – | – | – | – | 0.0058 µM | 0.0039 µM | 0.0028 µM | less than 100 mP | 0.0307 µM | C[C@@H](NCCCn1c(Sc2cc(Cl)cc(Cl)c2)nc2c(N)ncnc21)C1CC1 [Compound 40] | – | – | – | –
